Like-named read-outs stand apart in the source and are kept apart here.
Experiments:
[1] = biological target: T1, HIV-1 IN (Human immunodeficiency virus type 1 group M subtype B, UniProt P12497); assay: In vitro IN inhibition assay (3’-processing and strand transfer); assay type: biochemical; settings: for IC50: Mn2+ cofactor (7.5 mM MnCl2); for IN inhibition (in words): highest concentration tested 100 μM
T1 construct: pre-incubated with purified recombinant IN (at a final concentration of 200 nM); made in house
Description: (§1) All compounds were dissolved in DMSO to a final stock concentration of 10 mM and stored at −20 °C. Initial screening for IN inhibitory effect was done at 100 μM and dilutions were made in DMSO. Compounds showing at least 50% inhibition at 100 μM were selected for IC50 determinations. γ-[^32P]-ATP was purchased from Perkin Elmer (Waltham, MA, USA). The expression system for wild-type IN was a generous gift of Dr. Robert Craigie, Laboratory of Molecular Biology, NIDDK, NIH (Bethesda, MD, USA). His-tagged APE1 was purified from an expression system kindly provided by Dr. Tom Curran, Department of Developmental Neurobiology, St. Jude Children’s Research Hospital (Memphis, TN, USA).
(§2) 21-mer oligonucleotides used in IN inhibition assay [21top (5’-[…]-3’) and 21bot (5’-ACTGCTAGAGATTTTCCA CAC-3’)] were purchased from Integrated DNA Technologies (Coralville, IA, USA) and purified by UV shadowing on polyacrylamide gel. The oligonucleotides used in APE1 inhibition assay [top strand: 5′-ATTTCACCGGTACG(F)TCTAGAATC CG-3′ containing the tetrahydrofuran synthetic abasic residue (F), and bottom strand: 3′-TAAAGTGG CCATGC(C)AGATCTTAGGC-5′] were purchased from The Midland Certified Reagent Company (Midland, TX, USA). To analyze the extent of 3’-processing and strand transfer with 5’-end labeled substrates, 21top was 5’-end labeled using T4 polynucleotide kinase (Epicentre, Madison, WI, USA) and [γ-^32P]-ATP (Perkin Elmer, Waltham, MA, USA). The kinase was heat-inactivated at 95 °C and 21bot was added in […]. The reaction mixture was allowed to cool slowly to room temperature, and purified through a spin-25 minicolumn (USA Scientific, Ocala, FL, USA) to separate annealed double-stranded oligonucleotide from unincorporated material. The oligonucleotides used in the APE1 inhibition assay were labeled using a similar protocol.
To determine the extent of 3’-processing and strand transfer, the test compounds, diluted in DMSO, were pre-incubated with purified recombinant IN (at a final concentration of 200 nM) in the reaction buffer [50 mM NaCl, 1 mM HEPES (pH 7.5), 50 μM EDTA, 50 μM dithiothreitol, 10% glycerol (w/v), 7.5 mM MnCl2, 0.1 mg mL–1 bovine serum albumin, 10 mM 2-mercaptoethanol, 10% dimethyl sulfoxide, and 25 mM MOPS (pH 7.2)] at 30 °C for 30 min. For Mg^2+ assay, 7.5 mM MgCl2 was substituted for MnCl2 and an optimal concentration of PEG was included in the reaction buffer. Following the pre-incubation, 20 nM of the 5’-end ^32P-labeled linear oligonucleotide substrate was added to the reaction mixture and incubated for an additional 1 h. Reactions were quenched by addition of 50X loading dye (98% deionized formamide, 10 mM EDTA, 0.025% xylene cyanol, and 0.025 % bromophenol blue). An aliquot was subjected to electrophoresis on a denaturing polyacrylamide gel (0.09 M tris–borate, pH 8.3, 2 mM EDTA, 20% acrylamide, 8M urea). Gels were dried under vacuum, exposed in a PhosphorImager cassette and visualized with a Typhoon 8610 Variable Mode Imager (Amersham Biosciences). Quantification was done with Image Quant 5.2 software. Percent inhibition (%I) was calculated using the following equation: %I = 100 × [1 − (D − C) / (N − C)] where C, N, and D are the fractions of 21-mer substrate converted into 19-mer (product of 3’-processing) or strand-transfer products for DNA alone, DNA plus IN, and DNA, IN plus test compound, respectively. IC50 values were determined by plotting the logarithm of test compound concentrations as a function of %I to obtain the concentration that produced 50% inhibition.

[2] = biological target: T2, human apurinic/apyrimidinic endonuclease 1 (APE1) (Homo sapiens, UniProt P27695); assay: APE1 inhibition assay; assay type: biochemical
T2 construct: His; made in house
Description: as §1, §2
APE1 inhibition assay was performed as previously described. To determine the extent of endonucleolytic cleavage of the abasic residue, the test compounds, diluted in DMSO, were preincubated with recombinant APE1 at a final concentration of 0.05 nM in the reaction buffer [50 mM NaCl, 1 mM HEPES, pH 7.5, 50 μM EDTA, 50 μM dithiothreitol, 10% glycerol (w/v), 7.5 mM MnCl2, 0.1 mg mL‑1 bovine serum albumin, 10 mM 2-mercaptoethanol, 10% DMSO, and 25 mM MOPS, pH 7.2] at 30 °C for 10 min. Following preincubation, 200 nM of the 5′-end ^32P-labeled linear oligonucleotide substrate was added, and incubated for an additional 10 minutes. Reactions were quenched by the addition of an equal volume (16 μL) of loading dye (98% deionized formamide, 10 mM EDTA, 0.025% xylene cyanol, and 0.025% bromophenol blue). An aliquot (5 μL) was electrophoresed on a denaturing 20% polyacrylamide gel (0.09 M tris-borate pH 8.3, 2 mM EDTA, 20% acrylamide, 8 M urea). The gels were dried, exposed in a PhosphorImager cassette and analyzed using a Typhoon 8610 Variable Mode Imager (Amersham Biosciences). Quantification of enzyme inhibition was done using Image Quant 5.2 software. The percent inhibition (% I) was calculated using the following equation: %I = 100 × [1 − (D − C) / (N − C)] where C, N, and D are the fractions of 26-mer substrate converted to 13-mer incision products (or integration products) for DNA alone, DNA plus APE1, and DNA, APE1 plus test compound, respectively. IC50 values were determined by plotting the logarithm of compound concentration as a function of %I to obtain the concentration that produced 50% inhibition. An optimum concentration of APE1 enzyme, at which there is complete conversion of the synthetic abasic-site containing oligonucleotide substrate to its cleaved product without subsequent exonuclease activity, was used in the assay.

[3] = read-out: Inhibition of IN catalytic activity IC50, 3’-Processing
[4] = read-out: Inhibition of IN catalytic activity IC50, Strand Transfer
[5] = read-out: Inhibition of APE1 catalytic activity IC50

T2 sequence (P27695 whole entry): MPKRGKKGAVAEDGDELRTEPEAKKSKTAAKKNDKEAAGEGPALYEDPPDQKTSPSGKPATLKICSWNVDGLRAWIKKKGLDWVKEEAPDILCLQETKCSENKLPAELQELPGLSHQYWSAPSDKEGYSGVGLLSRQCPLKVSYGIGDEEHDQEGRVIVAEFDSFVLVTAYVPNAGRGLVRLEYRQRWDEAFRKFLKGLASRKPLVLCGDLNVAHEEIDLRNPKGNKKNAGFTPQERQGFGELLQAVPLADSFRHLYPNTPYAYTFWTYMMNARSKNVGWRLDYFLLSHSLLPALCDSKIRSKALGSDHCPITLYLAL

| Molecule | IC50 [1, 3] | IC50 [1, 4] | melting point | IC50 [2, 5] | IC50 [2] | IN inhibition (in words) [1] |
| --- | --- | --- | --- | --- | --- | --- |
| CCOc1cc(-n2cnnn2)c(OCC)cc1NC(=O)C(=S)NN1C(=O)C(=Cc2ccc([N+](=O)[O-])o2)SC1=S [Compound 20, N-[2,5-diethoxy-4-(1H-tetrazol-1-yl)phenyl]-2-{5-[(5-nitro-2-furyl)methylene]-4-oxo-2-thioxo-1,3-thiazolidin-3-yl}amino-2-thioxoacetamide] | > 100 µM | 85 ± 21 µM | 136 to 138 °C | > 100 µM | – | – |
| COc1cc(/C=C2/SC(=S)N(NC(=S)C(=O)Nc3cc(C(F)(F)F)cc(C(F)(F)F)c3)C2=O)cc(OC)c1OC [Compound 26, N-[3,5-bis(trifluoromethyl)phenyl]-2-{[4-oxo-2-thioxo-5-(3,4,5-trimethoxybenzylidene)-1,3-thiazol-idin-3-yl]amino}-2-thioxoacetamide] | > 100 µM | > 100 µM | 187 to 188 °C | – | – | – |
| COc1cc(C=C2SC(=S)N(NC(=S)C(=O)Nc3cc(OC)c(OC)c(OC)c3)C2=O)cc(OC)c1OC [Compound 22, 2-{[4-Oxo-2-thioxo-5-(3,4,5-trimethoxybenzylidene)-1,3-thiazolidin-3-yl]amino}-2-thioxo-N-(3,4,5-tri-methoxyphenyl)acetamide] | > 100 µM | 90 µM | 196 to 197 °C | > 100 µM | – | – |
| COc1cc(C=C2SC(=S)N(NC(=S)C(=O)Nc3ccc(-n4cnnn4)c(C)c3)C2=O)cc(OC)c1OC [Compound 24, N-[3-methyl-4-(1H-tetrazol-1-yl)phenyl]-2-{[4-oxo-2-thioxo-5-(3,4,5-trimethoxybenzylidene)-1,3-thiazolidin-3-yl]amino}-2-thioxoacetamide] | > 100 µM | > 100 µM | 173 to 174 °C | > 100 µM | – | – |
| O=C(Nc1ccc(O)cc1)C(=S)NN1C(=O)C(=Cc2cc(Cl)ccc2O)SC1=S [Compound 41, 2-{[5-(5-Chloro-2-hydroxybenzylidene)-4-oxo-2-thioxo-1,3-thiazolidin-3-yl]amino}-N-(4-hydroxy-phenyl)-2-thioxoacetamide] | > 100 µM | 67 µM | 220 to 221 °C | > 100 µM | – | – |
| CCN(CC)c1ccc(C=C2SC(=S)N(NC(=S)C(=O)Nc3ccc(O)cc3)C2=O)c(O)c1 [Compound 47, 2-({5-[4-(Diethylamino)-2-hydroxybenzylidene]-4-oxo-2-thioxo-1,3-thiazolidin-3-yl}amino)-N-(4-hydroxyphenyl)-2-thioxoacetamide] | > 100 µM | > 100 µM | 206 to 207 °C | > 100 µM | – | – |
| O=C(Nc1cc(C(F)(F)F)cc(C(F)(F)F)c1)C(=S)NN1C(=O)C(=Cc2ccc([N+](=O)[O-])o2)SC1=S [Compound 16, N-[3,5-bis(trifluoromethyl)phenyl]-2-{5-[(5-nitro-2-furyl)methylene]-4-oxo-2-thioxo-1,3-thiazolidin-3-yl}amino-2-thioxoacetamide] | > 100 µM | 74 ± 20 µM | 195 to 196 °C | > 100 µM | – | – |
| O=C(Nc1cccc([N+](=O)[O-])c1)C(=S)NN1C(=O)C(=Cc2ccc([N+](=O)[O-])o2)SC1=S [Compound 14, 2-{-5-[(5-Nitro-2-furyl)methylene]-4-oxo-2-thioxo-1,3-thiazolidin-3-yl}amino-N-(3-nitrophenyl)-2-thioxoacetamide] | 58 µM | 58 µM | 152 to 153 °C | – | > 100 µM | – |
| O=C(Nc1cccc([N+](=O)[O-])c1)C(=S)NN1C(=O)C(=Cc2ccc(Cl)cc2)SC1=S [Compound 8, 2-{[5-(4-Chlorobenzylidene)-4-oxo-2-thioxo-1,3-thiazolidin-3-yl]amino}-N-(3-nitrophenyl)-2-thioxo-acetamide] | > 100 µM | > 100 µM | 221 to 222 °C | 76 ± 5 µM | – | lacked any IN inhibitory activity |
| CCOc1cccc(C=C2SC(=S)N(NC(=S)C(=O)Nc3ccc(O)cc3)C2=O)c1O [Compound 45, 2-{[5-(3-Ethoxy-2-hydroxybenzylidene)-4-oxo-2-thioxo-1,3-thiazolidin-3-yl]amino}-N-(4-hydroxyphenyl)-2-thioxoacetamide] | > 100 µM | > 100 µM | 184 to 185 °C | > 100 µM | – | – |
| 2-{[5-(2-Hydroxy-3,5-diisopropylbenzylidene)-4-oxo-2-thioxo-1,3-thiazolidin-3-yl]amino}-N-(3,4,5-trimethoxyphenyl)-2-thioxoacetamide [Compound 40] | > 100 µM | 95 µM | – | > 100 µM | – | – |
| O=C(Nc1cccc(C(F)(F)F)c1)C(=S)NN1C(=O)C(=Cc2ccc([N+](=O)[O-])o2)SC1=S [Compound 15, 2-{5-[(5-Nitro-2-furyl)methylene]-4-oxo-2-thioxo-1,3-thiazolidin-3-yl}amino-2-thioxo-N-[3-(trifluoro-methyl)phenyl]acetamide] | 61 ± 35 µM | 56 ± 11 µM | 163 to 164 °C | – | – | – |
| 2-{[5-(5-Bromo-2-hydroxy-3-methoxybenzylidene)-4-oxo-2-thioxo-1,3-thiazolidin-3-yl]amino}-N-(3,4,5-trimethoxyphenyl)acetamide [Compound 38] | 51 ± 25 µM | 32 ± 11 µM | – | 65 ± 33 µM | – | – |
| O=C(Nc1ccc(Cl)cc1)C(=S)NN1C(=O)C(=Cc2ccc(Cl)cc2)SC1=S [Compound 7, 2-{[5-(4-Chlorobenzylidene)-4-oxo-2-thioxo-1,3-thiazolidin-3-yl]amino}-N-(4-chlorophenyl)-2-thioxo-acetamide] | > 100 µM | > 100 µM | 211 to 212 °C | – | – | lacked any IN inhibitory activity |
| 2-{[5-(2-Hydroxy-3,5-diisopropylbenzylidene)-4-oxo-2-thioxo-1,3-thiazolidin-3-yl]amino}-N-(4-hydroxyphenyl)-2-thioxoacetamide [Compound 54] | > 100 µM | > 100 µM | – | > 100 µM | – | loss of activity |

Reference: article PMC6264390, “Design, Synthesis and Structure-activity Studies of Rhodanine Derivatives as HIV-1 Integrase Inhibitors” (Molecules, 2010)
